From paper PMC11900317, “KinasePred: A Computational Tool for Small-Molecule Kinase Target Prediction” (International Journal of Molecular Sciences, 2025)
Where two headings read alike, the source gives them in different places.

Assays:
Assay in all cases: Z'-LYTE fluorescence kinase assay, single point
Format in all cases: biochemical
CSF1R = biological target: T1, CSF1R (Homo sapiens, UniProt P07333)
T1 construct: commercial kinase panel (Z'-LYTE, Thermo Fisher)
Excerpt: Z'-LYTE fluorescence kinase assay, single point on CSF1R

SYK = biological target: T2, SYK (Homo sapiens, UniProt P43405)
T2 construct: commercial kinase panel (Z'-LYTE, Thermo Fisher)
Excerpt: Z'-LYTE fluorescence kinase assay, single point on SYK

IRAK4 = biological target: T3, IRAK4 (Homo sapiens, UniProt Q9NWZ3); settings: read-out: VS7
T3 construct: commercial kinase panel (Z'-LYTE, Thermo Fisher)
T3 sequence (Q9NWZ3 1-460): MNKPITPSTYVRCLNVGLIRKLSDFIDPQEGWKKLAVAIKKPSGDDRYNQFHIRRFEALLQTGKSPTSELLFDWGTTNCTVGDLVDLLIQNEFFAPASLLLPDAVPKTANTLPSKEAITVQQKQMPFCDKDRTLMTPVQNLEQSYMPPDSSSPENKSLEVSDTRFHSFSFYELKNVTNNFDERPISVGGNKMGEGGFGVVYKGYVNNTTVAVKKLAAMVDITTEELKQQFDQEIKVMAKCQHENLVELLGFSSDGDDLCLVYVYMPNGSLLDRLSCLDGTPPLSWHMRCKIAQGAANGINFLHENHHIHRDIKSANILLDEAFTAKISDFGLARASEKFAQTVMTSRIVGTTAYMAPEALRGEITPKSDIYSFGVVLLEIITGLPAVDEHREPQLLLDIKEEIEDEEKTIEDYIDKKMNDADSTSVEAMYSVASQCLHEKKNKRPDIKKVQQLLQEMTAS
Excerpt: Z'-LYTE fluorescence kinase assay, single point on IRAK4

LCK = biological target: T4, LCK (Homo sapiens, UniProt P06239); settings: read-out: VS7
T4 construct: commercial kinase panel (Z'-LYTE, Thermo Fisher)
Excerpt: Z'-LYTE fluorescence kinase assay, single point on LCK

LRKK2 = biological target: T5, LRKK2 (Homo sapiens, UniProt Q5S007)
T5 construct: gene LRRK2; commercial kinase panel (Z'-LYTE, Thermo Fisher)
Excerpt: Z'-LYTE fluorescence kinase assay, single point on LRKK2

NTRK1 = biological target: T6, NTRK1 (Homo sapiens, UniProt P04629); settings: read-out: VS7
T6 construct: commercial kinase panel (Z'-LYTE, Thermo Fisher)
Excerpt: Z'-LYTE fluorescence kinase assay, single point on NTRK1

PTK2 = biological target: T7, PTK2 (Homo sapiens, UniProt Q05397); settings: read-out: VS7
T7 construct: commercial kinase panel (Z'-LYTE, Thermo Fisher)
Excerpt: Z'-LYTE fluorescence kinase assay, single point on PTK2

ROCK2 = biological target: T8, ROCK2 (Homo sapiens, UniProt O75116); settings: read-out: VS2
T8 construct: commercial kinase panel (Z'-LYTE, Thermo Fisher)
Excerpt: Z'-LYTE fluorescence kinase assay, single point on ROCK2

MAPK8 = biological target: T9, MAPK8 (Homo sapiens, UniProt P45983); settings: read-out: VS6
T9 construct: commercial kinase panel (Z'-LYTE, Thermo Fisher)
Excerpt: Z'-LYTE fluorescence kinase assay, single point on MAPK8

T1 sequence (P07333 20-972): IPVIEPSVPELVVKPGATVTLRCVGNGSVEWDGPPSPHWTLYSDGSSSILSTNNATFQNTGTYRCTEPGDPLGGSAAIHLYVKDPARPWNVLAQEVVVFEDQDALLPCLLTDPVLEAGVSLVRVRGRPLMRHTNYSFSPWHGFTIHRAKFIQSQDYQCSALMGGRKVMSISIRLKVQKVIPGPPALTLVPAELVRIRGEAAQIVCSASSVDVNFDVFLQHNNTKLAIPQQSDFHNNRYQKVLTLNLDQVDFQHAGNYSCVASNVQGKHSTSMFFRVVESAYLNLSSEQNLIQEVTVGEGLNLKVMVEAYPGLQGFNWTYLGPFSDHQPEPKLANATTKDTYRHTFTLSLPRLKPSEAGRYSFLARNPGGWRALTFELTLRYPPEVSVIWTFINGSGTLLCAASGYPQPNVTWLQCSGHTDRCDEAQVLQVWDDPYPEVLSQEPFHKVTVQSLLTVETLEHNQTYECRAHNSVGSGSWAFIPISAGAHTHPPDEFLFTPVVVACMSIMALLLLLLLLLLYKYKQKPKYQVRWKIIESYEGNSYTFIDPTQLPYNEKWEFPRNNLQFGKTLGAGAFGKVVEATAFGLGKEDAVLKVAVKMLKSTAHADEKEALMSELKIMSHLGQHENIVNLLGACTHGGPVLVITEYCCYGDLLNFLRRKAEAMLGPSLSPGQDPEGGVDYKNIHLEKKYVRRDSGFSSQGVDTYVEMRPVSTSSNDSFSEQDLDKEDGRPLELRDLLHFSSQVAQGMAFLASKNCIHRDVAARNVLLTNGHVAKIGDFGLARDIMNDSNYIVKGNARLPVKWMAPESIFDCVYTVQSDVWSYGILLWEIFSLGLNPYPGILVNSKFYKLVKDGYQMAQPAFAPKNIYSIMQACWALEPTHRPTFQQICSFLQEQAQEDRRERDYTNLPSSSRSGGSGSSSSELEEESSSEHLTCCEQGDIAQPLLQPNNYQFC
T5 sequence (Q5S007 whole entry): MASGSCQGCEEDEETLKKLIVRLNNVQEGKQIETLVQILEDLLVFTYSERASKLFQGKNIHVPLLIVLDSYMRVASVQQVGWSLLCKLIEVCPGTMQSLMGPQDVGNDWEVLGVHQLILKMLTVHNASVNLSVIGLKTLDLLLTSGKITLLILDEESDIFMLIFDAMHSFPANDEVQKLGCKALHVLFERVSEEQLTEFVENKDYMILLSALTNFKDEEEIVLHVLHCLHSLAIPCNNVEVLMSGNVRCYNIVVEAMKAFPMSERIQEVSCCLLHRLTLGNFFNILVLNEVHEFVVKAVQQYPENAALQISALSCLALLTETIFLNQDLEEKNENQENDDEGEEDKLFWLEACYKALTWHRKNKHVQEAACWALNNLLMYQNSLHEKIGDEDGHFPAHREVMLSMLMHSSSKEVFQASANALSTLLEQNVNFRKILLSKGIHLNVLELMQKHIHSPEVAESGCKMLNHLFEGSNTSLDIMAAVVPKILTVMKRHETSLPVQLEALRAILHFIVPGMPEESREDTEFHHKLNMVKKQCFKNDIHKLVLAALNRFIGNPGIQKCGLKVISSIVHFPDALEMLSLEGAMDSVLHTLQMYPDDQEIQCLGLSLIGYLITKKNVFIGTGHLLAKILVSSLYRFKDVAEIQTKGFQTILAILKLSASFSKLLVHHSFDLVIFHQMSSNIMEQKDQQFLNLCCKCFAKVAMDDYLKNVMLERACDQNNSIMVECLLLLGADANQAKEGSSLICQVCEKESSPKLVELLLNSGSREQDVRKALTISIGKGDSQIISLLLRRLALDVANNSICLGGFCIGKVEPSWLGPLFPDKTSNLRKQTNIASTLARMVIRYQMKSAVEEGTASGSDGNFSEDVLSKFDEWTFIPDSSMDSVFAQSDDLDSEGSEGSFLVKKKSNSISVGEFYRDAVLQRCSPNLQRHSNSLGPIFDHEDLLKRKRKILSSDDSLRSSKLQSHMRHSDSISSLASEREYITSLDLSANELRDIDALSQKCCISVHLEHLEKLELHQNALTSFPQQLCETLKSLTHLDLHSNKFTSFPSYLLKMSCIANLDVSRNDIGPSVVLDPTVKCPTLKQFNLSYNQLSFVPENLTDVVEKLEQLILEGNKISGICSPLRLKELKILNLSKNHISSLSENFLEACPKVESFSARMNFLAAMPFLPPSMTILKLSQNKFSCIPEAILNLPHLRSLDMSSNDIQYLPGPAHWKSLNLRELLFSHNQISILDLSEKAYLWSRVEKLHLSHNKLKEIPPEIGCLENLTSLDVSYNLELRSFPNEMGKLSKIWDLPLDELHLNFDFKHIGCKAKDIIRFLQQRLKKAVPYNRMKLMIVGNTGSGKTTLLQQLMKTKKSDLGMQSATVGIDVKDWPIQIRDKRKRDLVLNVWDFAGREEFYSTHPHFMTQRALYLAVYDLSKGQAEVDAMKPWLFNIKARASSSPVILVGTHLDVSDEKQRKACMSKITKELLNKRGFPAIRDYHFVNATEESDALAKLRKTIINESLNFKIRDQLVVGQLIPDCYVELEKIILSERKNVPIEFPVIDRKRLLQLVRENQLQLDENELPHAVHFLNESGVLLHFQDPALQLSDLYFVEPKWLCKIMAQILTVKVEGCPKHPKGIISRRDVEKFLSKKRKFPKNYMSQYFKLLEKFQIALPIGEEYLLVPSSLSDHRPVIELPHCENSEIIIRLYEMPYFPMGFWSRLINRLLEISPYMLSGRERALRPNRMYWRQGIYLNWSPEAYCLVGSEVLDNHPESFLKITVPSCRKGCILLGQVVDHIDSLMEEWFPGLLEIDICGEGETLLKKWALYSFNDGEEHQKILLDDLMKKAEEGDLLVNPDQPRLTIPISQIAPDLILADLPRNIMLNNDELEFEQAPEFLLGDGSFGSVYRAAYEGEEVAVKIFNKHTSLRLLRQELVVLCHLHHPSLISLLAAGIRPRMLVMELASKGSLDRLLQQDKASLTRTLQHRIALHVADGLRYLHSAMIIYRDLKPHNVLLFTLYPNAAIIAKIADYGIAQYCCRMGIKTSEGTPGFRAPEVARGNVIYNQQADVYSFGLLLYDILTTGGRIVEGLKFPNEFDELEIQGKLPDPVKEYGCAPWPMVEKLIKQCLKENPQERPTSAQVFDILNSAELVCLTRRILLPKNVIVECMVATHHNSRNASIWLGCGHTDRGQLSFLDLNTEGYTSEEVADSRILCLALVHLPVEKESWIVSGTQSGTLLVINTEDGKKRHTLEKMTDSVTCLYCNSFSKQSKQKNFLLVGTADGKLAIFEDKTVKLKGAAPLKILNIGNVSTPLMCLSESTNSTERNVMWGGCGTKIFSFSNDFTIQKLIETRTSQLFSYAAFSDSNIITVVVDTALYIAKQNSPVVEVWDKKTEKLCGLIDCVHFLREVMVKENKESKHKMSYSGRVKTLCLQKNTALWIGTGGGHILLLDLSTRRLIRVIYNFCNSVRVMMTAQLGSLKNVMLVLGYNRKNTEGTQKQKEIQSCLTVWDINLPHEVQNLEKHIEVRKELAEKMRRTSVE
T6 sequence (P04629 33-796): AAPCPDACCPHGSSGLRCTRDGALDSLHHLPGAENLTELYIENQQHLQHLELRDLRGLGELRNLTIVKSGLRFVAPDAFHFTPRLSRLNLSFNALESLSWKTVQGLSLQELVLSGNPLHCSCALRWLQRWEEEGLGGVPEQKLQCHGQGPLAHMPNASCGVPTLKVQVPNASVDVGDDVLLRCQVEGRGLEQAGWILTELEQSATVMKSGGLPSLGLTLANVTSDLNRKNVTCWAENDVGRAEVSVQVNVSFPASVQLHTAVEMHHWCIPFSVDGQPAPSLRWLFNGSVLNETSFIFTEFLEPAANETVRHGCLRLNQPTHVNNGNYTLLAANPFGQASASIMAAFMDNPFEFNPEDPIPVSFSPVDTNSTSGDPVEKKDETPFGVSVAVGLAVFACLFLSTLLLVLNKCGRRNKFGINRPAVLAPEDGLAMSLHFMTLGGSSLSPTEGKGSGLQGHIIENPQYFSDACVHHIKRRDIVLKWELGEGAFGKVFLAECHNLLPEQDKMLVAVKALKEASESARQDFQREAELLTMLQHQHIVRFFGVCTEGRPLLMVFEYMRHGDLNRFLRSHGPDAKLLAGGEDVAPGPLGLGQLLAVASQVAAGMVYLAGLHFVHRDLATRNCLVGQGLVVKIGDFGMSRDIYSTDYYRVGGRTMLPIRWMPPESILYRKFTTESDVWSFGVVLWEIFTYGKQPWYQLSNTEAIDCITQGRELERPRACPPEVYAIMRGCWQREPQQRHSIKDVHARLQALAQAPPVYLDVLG
T4 sequence (P06239 2-509): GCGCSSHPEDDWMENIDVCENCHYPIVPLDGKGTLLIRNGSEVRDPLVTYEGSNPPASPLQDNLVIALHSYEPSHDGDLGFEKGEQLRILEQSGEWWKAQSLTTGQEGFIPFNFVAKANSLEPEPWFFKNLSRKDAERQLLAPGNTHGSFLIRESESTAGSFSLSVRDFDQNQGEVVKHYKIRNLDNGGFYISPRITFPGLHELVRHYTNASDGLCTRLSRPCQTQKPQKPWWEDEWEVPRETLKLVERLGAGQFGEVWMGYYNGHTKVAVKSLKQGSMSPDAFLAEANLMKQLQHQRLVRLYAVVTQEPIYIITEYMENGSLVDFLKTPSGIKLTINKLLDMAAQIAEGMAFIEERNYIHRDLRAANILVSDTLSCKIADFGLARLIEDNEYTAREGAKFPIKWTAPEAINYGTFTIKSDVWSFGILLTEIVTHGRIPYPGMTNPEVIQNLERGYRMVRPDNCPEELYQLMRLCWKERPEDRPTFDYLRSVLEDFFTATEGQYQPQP

SMILES: Cc1cc(C(=O)Nc2scc(-c3ccc(C)c(C)c3)c2C(N)=O)no1 [VS5]
- inhibition at 10 µM (CSF1R; read-out: VS5): 54%

SMILES: NC(=O)c1ccc(Nc2nc(NCc3ccco3)c3ccccc3n2)cc1 [VS7]
- inhibition at 10 µM (SYK; read-out: VS7): 90%
- inhibition at 10 µM (IRAK4): 80%
- inhibition at 10 µM (LCK): 53%
- inhibition at 10 µM (CSF1R; read-out: VS6): 89%
- inhibition at 10 µM (LRKK2; read-out: VS7): 100%
- inhibition at 10 µM (NTRK1): 90%
- inhibition at 10 µM (PTK2): 66%

SMILES: COc1cc(/C=C(/C#N)C(=O)c2ccccc2)ccc1O [VS3]
- inhibition at 10 µM (LRKK2; read-out: VS3): 54%

SMILES: O=C(Nc1ccncc1)c1cccc(C(F)(F)F)c1 [VS2]
- inhibition at 10 µM (ROCK2): 74%
- inhibition at 10 µM (LRKK2; read-out: VS2): 50%

SMILES: c1ccc(Nc2nccc(-c3ccsc3)n2)cc1 [VS6]
- inhibition at 10 µM (SYK; read-out: VS6): 57%
- inhibition at 10 µM (CSF1R; read-out: VS6): 89%
- inhibition at 10 µM (LRKK2; read-out: VS6): 60%
- inhibition at 10 µM (MAPK8): 63%
